Assay results as given in PubChem BioAssay (NCI).
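All cell lines were grown in 96-well plates and treated with compound for 48 hours. The concentration for 50% growth inhibition is given as GI50. At the TGI there is no net growth.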

Key:
Assay in all cases: NCI tumour cell line growth inhibition, 48 h
RPMI-8226 leukemia = system: RPMI-8226 leukemia
SNB-75 CNS = system: SNB-75 CNS
SK-MEL-5 melanoma = system: SK-MEL-5 melanoma
UACC-257 melanoma = system: UACC-257 melanoma
IGROV1 ovarian = system: IGROV1 ovarian
HOP-92 NSCLC = system: HOP-92 NSCLC
KM12 colon = system: KM12 colon
HCT-15 colon = system: HCT-15 colon
OVCAR-8 ovarian = system: OVCAR-8 ovarian
NCI/ADR-RES ovarian = system: NCI/ADR-RES ovarian

Row | Structure (SMILES) | TGI (RPMI-8226 leukemia) | TGI (SNB-75 CNS) | TGI (SK-MEL-5 melanoma) | TGI (UACC-257 melanoma) | TGI (IGROV1 ovarian) | TGI (HOP-92 NSCLC) | TGI (KM12 colon) | TGI (HCT-15 colon) | TGI (OVCAR-8 ovarian) | TGI (NCI/ADR-RES ovarian) | GI50 (RPMI-8226 leukemia) | GI50 (SNB-75 CNS) | GI50 (SK-MEL-5 melanoma) | GI50 (UACC-257 melanoma) | GI50 (IGROV1 ovarian) | GI50 (HOP-92 NSCLC) | GI50 (KM12 colon) | GI50 (HCT-15 colon) | GI50 (OVCAR-8 ovarian) | GI50 (NCI/ADR-RES ovarian)
1 | O=C(CCN1CCCCC1)N1CCc2c([nH]c3ccccc23)C1c1cccnc1 (stereo not drawn) | > 100 µM | > 92.1 µM | 41.3 µM | 34.7 µM | > 100 µM | 66 µM | > 100 µM | > 100 µM | > 100 µM | > 100 µM | – | – | – | – | – | – | – | – | – | –
2 | COC(=O)c1oc2c(C(=O)/C=C/c3ccc(OC)cc3)c(OCCN(C)C)ccc2c1C | 20.5 µM | 22.2 µM | 22.4 µM | 29.2 µM | 21.4 µM | 19.8 µM | 24.5 µM | 16.8 µM | 21.5 µM | 28 µM | 3.83 µM | 9.94 µM | 10.6 µM | 14.1 µM | 5.99 µM | 5.91 µM | 9.43 µM | 4.13 µM | 4.96 µM | 10.3 µM
3 | CN1CCN(Cc2ccc(NC(=O)c3cncc(C#Cc4cnc(N)c5cccnc45)c3)cc2C(F)(F)F)CC1 | > 50 µM | > 12 µM | 2.13 µM | > 50 µM | – | 1.16 µM | > 50 µM | > 50 µM | > 50 µM | > 50 µM | 0.603 µM | 0.469 µM | 0.571 µM | 0.273 µM | – | 0.148 µM | 0.069 µM | 1.85 µM | 0.397 µM | > 50 µM
4 | CCOC(=O)C(C#N)C1=CC(=O)C(=O)c2ccc(O)cc21 (stereo not drawn) | > 100 µM | > 100 µM | > 100 µM | > 100 µM | > 100 µM | – | > 100 µM | > 100 µM | > 100 µM | > 100 µM | – | – | – | – | – | – | – | – | – | –
5 | O=C(O)C1[O][Sb][O]C(C(=O)O)C1O (stereo not drawn) | – | > 100 µM | > 100 µM | – | > 100 µM | > 100 µM | > 100 µM | > 100 µM | > 100 µM | > 100 µM | – | > 100 µM | > 100 µM | – | > 100 µM | > 100 µM | > 100 µM | > 100 µM | > 100 µM | > 100 µM
6 | Cc1cn(Cc2ccc(C34CC5CC(CC(C5)C3)C4)c(O)c2)c(=O)[nH]c1=O | 21 µM | 29.6 µM | 15.8 µM | – | – | 29.5 µM | 26.2 µM | 20.5 µM | – | 27.2 µM | 1.79 µM | 11.2 µM | 4.37 µM | – | – | 14.4 µM | 11.4 µM | 7.99 µM | – | 11.3 µM
7 | O=C1c2ccccc2-c2c1c1ccccc1c(=O)n2CCCNCCn1c2c(c3ccccc3c1=O)C(=O)c1ccccc1-2 | – | 32.2 µM | – | 35 µM | 32.2 µM | 28.1 µM | > 100 µM | 13 µM | 16.6 µM | 25.9 µM | – | 11.8 µM | – | 17.9 µM | 2.63 µM | 14.1 µM | 2.32 µM | 2.74 µM | 2.73 µM | 11.3 µM
